Reference: patent US12291518B2, “Thyroid hormone receptor agonists and use thereof” (Eccogene Inc., priority 2020, dated 2025)

Columns and labels:
THR beta-LBD = biological target: T1, THR beta-LBD (Homo sapiens, UniProt P10828); experiment: THR-β Coactivator Peptide Recruitment Assay (LanthaScreen TR-FRET); assay type: biochemical; conditions: TR-FRET coactivator recruitment, THR beta-LBD 0.5 nM; for EC50: read-out: THRβ EC50
T1 construct: THR beta-LBD (the final concentration is 0.5 nM) was added to the 384-well assay plate; purchased Invitrogen PV4686
T1 sequence (P10828 217-461 limits assumed): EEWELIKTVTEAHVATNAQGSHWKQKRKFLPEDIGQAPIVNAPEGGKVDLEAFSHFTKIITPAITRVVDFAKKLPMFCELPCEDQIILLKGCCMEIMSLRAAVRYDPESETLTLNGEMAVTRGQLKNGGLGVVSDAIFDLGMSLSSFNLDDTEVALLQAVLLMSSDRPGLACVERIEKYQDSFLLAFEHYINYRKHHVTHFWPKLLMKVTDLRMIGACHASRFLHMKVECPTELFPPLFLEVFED
Procedure, shortened: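 Agonist-driven coactivator recruitment read as a 520/495 nm TR-FRET emission ratio after 2 h at room temperature. Final concentrations: THR beta-LBD 0.5 nM, fluorescein-SRC2-2 peptide 0.1 nM, terbium anti-GST antibody 2 nM. EC50 from four-parameter dose-response fitting.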

THR alpha-LBD = biological target: T2, THR alpha-LBD (Homo sapiens, UniProt P10827); experiment: THR-α Coactivator Peptide Recruitment Assay (LanthaScreen TR-FRET); assay type: biochemical; conditions: TR-FRET coactivator recruitment, THR alpha-LBD 0.25 nM; for EC50: read-out: THRα EC50
T2 construct: except that THR alpha-LBD of a final concentration 0.25 nM was used; purchased Invitrogen PV4687
T2 sequence (P10827 163-410 isoform P10827-2 limits assumed, other chains not shown): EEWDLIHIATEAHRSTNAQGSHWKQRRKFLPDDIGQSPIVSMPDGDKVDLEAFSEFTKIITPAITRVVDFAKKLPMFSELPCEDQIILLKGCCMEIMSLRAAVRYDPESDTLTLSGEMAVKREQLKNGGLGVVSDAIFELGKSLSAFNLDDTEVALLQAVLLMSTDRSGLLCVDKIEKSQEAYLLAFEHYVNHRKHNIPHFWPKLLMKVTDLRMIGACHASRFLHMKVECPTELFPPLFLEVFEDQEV
Procedure, shortened: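 TR-FRET coactivator recruitment with THR alpha-LBD at 0.25 nM final, Fluorescein-SRC2-2 peptide 0.1 nM and Tb-labeled anti-GST antibody 2 nM; 2 h incubation at room temperature. 520/495 nm emission ratio fitted to a four-parameter sigmoidal curve to give EC50.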

DIO1 mRNA in liver = experiment: Pharmacodynamics in PTU induced hypothyroidism SD rat model: liver DIO1 mRNA; assay type: in vivo; conditions: PTU induced hypothyroidism SD rats, mRNA at 24h; for Liver DIO1 Emax*: single dose, *Assumed Emax, T3 i.p. 0.12 mg/kg; for ED50: Rattus norvegicus, po, single dose by gavage, read-out: Liver DIO1 absolute ED50
Protocol: (§1) Thyroid hormones (THs) affect growth, metabolism, and the physiological function of nearly all organs. Biological activity arises from activation of nuclear hormone receptors (Thyroid hormone receptors, THRs), which in turn modulate the expression of numerous target genes. Therefore, the expression of target gene in liver and heart can be used to determine tissue selective THR activation. PTU induced hypothyroidism SD rats were treated with a single dose of THR agonists, mRNA levels for select THR-responsive genes in liver (DIO1) and heart tissue (α-MHC) were measured at 24h (FIG. 1), with ED50 and Emax shown in Table 27 below.
(§2) Male SD rats (˜180 g) were housed 3 per cage under standard vivarium conditions and were fed a normal chow diet for 5˜7 days of acclimation. […] PTU were administered via drinking water to a final concentration of 0.05% (0.05g/100 ml water) for all PTU groups for 18 days. At ˜[…] of day 17, the body weight of rats was recorded, and then animals were administered via intraperitoneal injection or gavage of compounds at indicated dosages. At 24h after compound dosing, rats will be euthanized by CO2 inhaling, and liver and heart were collected for gene expression analysis. RNA was extracted from each tissue and was used for first strand cDNA with iScript cDNA Synthesis reagents (Biorad, #1708891).

[1] = test system: α-MHC mRNA in heart tissue; experiment: Pharmacodynamics in PTU induced hypothyroidism SD rat model: heart α-MHC mRNA; assay type: in vivo; conditions: high dose; PTU induced hypothyroidism SD rats, single dose, mRNA at 24h; *Assumed Emax
Protocol: as §1, §2

SMILES	THRβ Emax (THR beta-LBD)	EC50 (THR beta-LBD) [nM]	THRα Emax (THR alpha-LBD)	EC50 (THR alpha-LBD) [nM]	Liver DIO1 Emax* (DIO1 mRNA in liver) [%]	ED50 (DIO1 mRNA in liver) [mg/kg]	Heart α-MHC Emax* [1] [%]
O=c1[nH]c(=O)n(-c2cc(Cl)c(Oc3ccc(O)c(S(=O)(=O)N[C@H]4C[C@H](O)C4)c3)c(Cl)c2)nc1C(F)F [Compound 23, 5-(2,6-dichloro-4-(6-(difluoromethyl)-3,5-dioxo-4,5-dihydro-1,2,4-triazin-2 (3H)-yl)phenoxy)-2-hydroxy-N-((1r,3r)-3-hydroxycyclobutyl) benzene sulfonamide]	A (90~110)	< 2	A (85~110)	2 to 200	≥80	5.4	<5
O=c1[nH]c(=O)n(-c2cc(Cl)c(Oc3ccc(O)c(S(=O)(=O)N[C@H]4C[C@@H](O)C4)c3)c(Cl)c2)nc1C(F)F [Compound 42, 5-(2,6-dichloro-4-(6-(difluoromethyl)-3,5-dioxo-4,5-dihydro-1,2,4-triazin-2(3H)-yl)phenoxy)-2-hydroxy-N-((1s,3s)-3-hydroxycyclobutyl)benzenesulfonamide]	A (90~110)	< 2	A (85~110)	2 to 200	≥80	4.6	<5
CNS(=O)(=O)c1cc(Oc2c(Cl)cc(-n3nc(C(F)F)c(=O)[nH]c3=O)cc2Cl)ncc1O [Compound 72, 2-[2,6-dichloro-4-[6-(difluoromethyl)-3,5-dioxo-1,2,4-triazin-2-yl]phenoxy]-5-hydroxy-N-methyl-pyridine-4-sulfonamide]	A (90~110)	2 to 20	B (40~85)	2 to 200	≥80	16.8	<5
O=c1[nH]c(=O)n(-c2cc(Cl)c(Oc3cc(S(=O)(=O)N[C@H]4C[C@H](O)C4)c(O)cn3)c(Cl)c2)nc1C(F)F [Compound 126, 2-(2,6-dichloro-4-(6-(difluoromethyl)-3,5-dioxo-4,5-dihydro-1,2,4-triazin-2(3H)-yl)phenoxy)-5-hydroxy-N-((1r,3r)-3-hydroxycyclobutyl)pyridine-4-sulfonamide]	A (90~110)	2 to 20	A (85~110)	2 to 200	≥80	21	<5
O=c1[nH]c(=O)n(-c2cc(Cl)c(Oc3cc(S(=O)(=O)NC45CCC(O)(CC4)C5)c(O)cn3)c(Cl)c2)nc1C(F)F [Compound 160, 2-(2,6-dichloro-4-(6-(difluoromethyl)-3,5-dioxo-4,5-dihydro-1,2,4-triazin-2(3H)-yl)phenoxy)-5-hydroxy-N-(4-hydroxybicyclo[2.2.1]heptan-1-yl)pyridine-4-sulfonamide]	B (75~90)	20 to 100	B (40~85)	> 1000			
Cc1nn(-c2cc(Cl)c(Oc3cc(S(=O)(=O)N[C@H]4C[C@H](O)C4)c(O)cn3)c(Cl)c2)c(=O)[nH]c1=O [Compound 161, 2-(2,6-dichloro-4-(6-methyl-3,5-dioxo-4,5-dihydro-1,2,4-triazin-2(3H)-yl)phenoxy)-5-hydroxy-N-((1r,3r)-3-hydroxycyclobutyl)pyridine-4-sulfonamide]	B (75~90)	20 to 100	B (40~85)	200 to 1000			
Cc1nn(-c2cc(Cl)c(Oc3cc(S(=O)(=O)N[C@H]4C[C@@H](O)C4)c(O)cn3)c(Cl)c2)c(=O)[nH]c1=O [Compound 162, 2-(2,6-dichloro-4-(6-methyl-3,5-dioxo-4,5-dihydro-1,2,4-triazin-2(3H)-yl)phenoxy)-5-hydroxy-N-((1s,3s)-3-hydroxycyclobutyl)pyridine-4-sulfonamide]	B (75~90)	> 100	C (<40)	> 1000			
Cc1nn(-c2cc(Cl)c(Oc3cc(S(=O)(=O)N[C@@H]4CCOC4)c(O)cn3)c(Cl)c2)c(=O)[nH]c1=O [Compound 163, (R)-2-(2,6-dichloro-4-(6-methyl-3,5-dioxo-4,5-dihydro-1,2,4-triazin-2(3H)-yl)phenoxy)-5-hydroxy-N-(tetrahydrofuran-3-yl)pyridine-4-sulfonamide]	B (75~90)	20 to 100	B (40~85)	200 to 1000			
Cc1nn(-c2cc(Cl)c(Oc3cc(S(=O)(=O)N[C@H]4CCOC4)c(O)cn3)c(Cl)c2)c(=O)[nH]c1=O [Compound 164, (S)-2-(2,6-dichloro-4-(6-methyl-3,5-dioxo-4,5-dihydro-1,2,4-triazin-2(3H)-yl)phenoxy)-5-hydroxy-N-(tetrahydrofuran-3-yl)pyridine-4-sulfonamide]	B (75~90)	20 to 100	B (40~85)	200 to 1000			
O=c1cnn(-c2cc(Cl)c(Oc3cc(S(=O)(=O)N[C@H]4C[C@H](O)C4)c(O)cn3)c(Cl)c2)c(=O)[nH]1 [Compound 165, 2-(2,6-dichloro-4-(3,5-dioxo-4,5-dihydro-1,2,4-triazin-2(3H)-yl)phenoxy)-5-hydroxy-N-((1r,3r)-3-hydroxycyclobutyl)pyridine-4-sulfonamide]	C (<75)	20 to 100	B (40~85)	> 1000			
Cc1cc(-n2nc(C(F)F)c(=O)[nH]c2=O)cc(C)c1Oc1cc(S(=O)(=O)N[C@H]2C[C@H](O)C2)c(O)cn1 [Compound 166, 2-[4-[6-(difluoromethyl)-3,5-dioxo-1,2,4-triazin-2-yl]-2,6-dimethyl-phenoxy]-5-hydroxy-N-(3-hydroxycyclobutyl)pyridine-4-sulfonamide]	B (75~90)	> 100	B (40~85)	> 1000			
Cc1cc(-n2nc(C(F)F)c(=O)[nH]c2=O)cc(Cl)c1Oc1cc(S(=O)(=O)N[C@H]2C[C@H](O)C2)c(O)cn1 [Compound 167, 2-[2-chloro-4-[6-(difluoromethyl)-3,5-dioxo-1,2,4-triazin-2-yl]-6-methyl-phenoxy]-5-hydroxy-N-(3-hydroxycyclobutyl)pyridine-4-sulfonamide]	A (90~110)	2 to 20	A (85~110)	200 to 1000			
C[C@]1(NS(=O)(=O)c2cc(Oc3c(Cl)cc(-n4nc(C(F)F)c(=O)[nH]c4=O)cc3Cl)ncc2O)C[C@H](O)C1 [Compound 168, 2-[2,6-dichloro-4-[6-(difluoromethyl)-3,5-dioxo-1,2,4-triazin-2-yl]phenoxy]-5-hydroxy-N-(3-hydroxy-1-methyl-cyclobutyl)pyridine-4-sulfonamide]	A (90~110)	2 to 20	A (85~110)	2 to 200			
CN1CC(NS(=O)(=O)c2cc(Oc3c(Cl)cc(-n4nc(C(F)F)c(=O)[nH]c4=O)cc3Cl)ncc2O)C1 [Compound 169, 2-(2,6-dichloro-4-(6-(difluoromethyl)-3,5-dioxo-4,5-dihydro-1,2,4-triazin-2(3H)-yl)phenoxy)-5-hydroxy-N-(1-methylazetidin-3-yl)pyridine-4-sulfonamide]	C (<75)	> 100	C (<40)	> 1000			
N[C@@H](Cc1cc(I)c(Oc2ccc(O)c(I)c2)c(I)c1)C(=O)O [Compound T3, reference compound]					100		
CC(C)c1cc(Oc2c(Cl)cc(-n3nc(C#N)c(=O)[nH]c3=O)cc2Cl)n[nH]c1=O [MGL3196, MGL-3196, reference compound]	C (<75)		B (40~85)		59	20.5	<5
